# Counter-ions that a name gives are not always drawn. Like-named read-outs stand apart in the source and are kept apart here.
# Assays:
# [1] = Rat 28-day GLP repeat dose PO study (toxicokinetics); format: in vivo; conditions: rat, in vivo, po; for Tmax / AUC / AUC(0-inf) / CL/F / Cmax / Vd/F / half-life: male; for Tmax: read-out: tmax; for Cmax: read-out: Cmax; for half-life: read-out: t1/2 (converted)
# Method: The vehicle was 0.5% HPMC. There were 15 rats/sex in the control and high dose groups (5/sex for a 14-day recovery period) while the low and mid doses consisted of 10 rats/sex. Satellite groups of rats/sex/group for toxicokinetics were included.
# Rats in Group 1 (Vehicle Control) were bled once at approximately 1 hour post-dose on those days.
# OATP1B3 = biological target: T1, OATP1B3 (Homo sapiens, UniProt Q9NPD5); experiment: Inhibition of uptake (SLC) transporters; format: in vitro ADME
# T1 construct: expressed in transfected cells; host or cells: HEK293 cells
# T1 sequence (Q9NPD5 whole entry): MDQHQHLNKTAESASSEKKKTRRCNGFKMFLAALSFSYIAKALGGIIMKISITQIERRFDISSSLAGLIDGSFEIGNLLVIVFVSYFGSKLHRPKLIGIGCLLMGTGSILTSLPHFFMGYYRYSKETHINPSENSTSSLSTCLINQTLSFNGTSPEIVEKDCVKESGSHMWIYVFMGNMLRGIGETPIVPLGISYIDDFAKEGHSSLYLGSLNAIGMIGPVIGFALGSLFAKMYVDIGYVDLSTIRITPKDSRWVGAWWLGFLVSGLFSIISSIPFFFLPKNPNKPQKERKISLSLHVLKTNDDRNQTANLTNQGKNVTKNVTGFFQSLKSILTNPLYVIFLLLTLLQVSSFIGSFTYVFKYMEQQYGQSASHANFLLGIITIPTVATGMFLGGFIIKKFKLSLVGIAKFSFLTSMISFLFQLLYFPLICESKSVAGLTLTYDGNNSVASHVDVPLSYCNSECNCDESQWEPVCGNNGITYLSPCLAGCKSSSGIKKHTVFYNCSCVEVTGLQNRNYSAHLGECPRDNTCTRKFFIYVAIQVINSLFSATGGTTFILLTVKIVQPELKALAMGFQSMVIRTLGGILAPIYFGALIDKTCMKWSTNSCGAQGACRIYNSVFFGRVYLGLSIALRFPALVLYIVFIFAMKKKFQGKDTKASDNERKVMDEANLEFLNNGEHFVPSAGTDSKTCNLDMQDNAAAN
# peroxynitrite = experiment: Models of protein nitration; format: biochemical; conditions: physiological conditions (neutral pH)
# Excerpt: In cell-based assays of PN-mediated cytotoxicity, Compound 1 is protective. […] Chemically, Compound 1 can also react stoichiometrically with peroxynitrite to form a para-nitro adduct. Without being bound by theory, by targeting and removing peroxynitrite and peroxide, Compound 1 can disrupt the ensuing cascades that lead to hypersensitivity (protein modification, ion channel hyperexcitation) thus providing a long duration event in terms of pain relief.
# in vivo = conditions: rat, po, 100 mg/kg; for concentration at 1 h: 1 h post-dose; for concentration at 2 h: 2 h post-dose; for concentration at 0.5 h: 0.5 h post-dose
# Method: In both assays, a deuterated (Compound 1-d4) internal standard was used.
# The objective of this non-GLP study was to determine the pharmacokinetics of Compound 1 after a single oral (gavage) dose in rats, and to determine if Compound 1 undergoes epimerization in the rat. Compound 1 was administered to CD® IGS [Crl:CD(SD)] (Sprague Dawley) rats (5/sex/group) as a single oral gavage dose of 100 mg/kg in a vehicle of 0.5% aqueous HPMC. Rats were dosed at a dose volume of 10 mL/kg body weight.
# [2] = 500 mg/kg, Day 14, M, 500 mg/kg PO
# [3] = 500 mg/kg, Day 28, M, 500 mg/kg PO
# [4] = 1000 mg/kg, Day 1, M, 1000 mg/kg PO
# [5] = 1000 mg/kg, Day 14, M, 1000 mg/kg PO
# [6] = 1000 mg/kg, Day 28, M, 1000 mg/kg PO
# [7] = 2000 mg/kg, Day 1, M, 2000 mg/kg PO
# [8] = 2000 mg/kg, Day 14, M, 2000 mg/kg PO
# [9] = 2000 mg/kg, Day 28, M, 2000 mg/kg PO
# [10] = female, Sprague Dawley, Compound 1 Concentration in rat plasma, 100 mg/kg single PO, individual animals
# [11] = female, Sprague-Dawley (CD IGS, Crl:CD(SD))
# [12] = male, Sprague Dawley, Compound 1 Concentration in rat plasma, 100 mg/kg single PO, individual animals
# [13] = male, Sprague Dawley, Compound 1 Concentration in rat plasma, 100 mg/kg single PO, Average
# [14] = male, Sprague-Dawley (CD IGS, Crl:CD(SD))
structure (smiles),measurement,setting,value
"CC1(C)SC(Nc2ccccc2O)=N[C@@H]1C(=O)O [Compound 1, (R)-2-(2-hydroxyphenylamino)-5,5-dimethyl-4,5-dihydrothiazole-4-carboxylic acid mono-hydrochloride]",Tmax,"[1]; 500 mg/kg, Day 1, M, 500 mg/kg PO",1 h
same,AUC,[1]; [2],244 µg·h/mL
same,AUC(0-inf),[1]; [2],258 µg·h/mL
same,CL/F,"[1]; 500 mg/kg, Day 14, M, 500 mg/kg PO, read-out: CL/F (CLss/F) (converted)",34.2 mL/min/kg
same,Cmax,[1]; [2],45800 ng/mL
same,Vd/F,"[1]; 500 mg/kg, Day 14, M, 500 mg/kg PO, read-out: V/F (Vss/F)",18.5 L/kg
same,half-life,[1]; [2],6.27 h
same,Tmax,[1]; [2],1 h
same,AUC,[1]; [3],305 µg·h/mL
same,AUC(0-inf),[1]; [3],333 µg·h/mL
same,CL/F,"[1]; 500 mg/kg, Day 28, M, 500 mg/kg PO, read-out: CL/F (CLss/F) (converted)",27.3 mL/min/kg
same,Cmax,[1]; [3],48600 ng/mL
same,Vd/F,"[1]; 500 mg/kg, Day 28, M, 500 mg/kg PO, read-out: V/F (Vss/F)",16.4 L/kg
same,half-life,[1]; [3],6.9 h
same,Tmax,[1]; [3],1 h
same,CL/F,[1]; 1000 mg/kg,56.8 mL/min/kg
same,AUC,[1]; [4],456 µg·h/mL
same,AUC(0-inf),[1]; [4],460 µg·h/mL
same,CL/F,"[1]; 1000 mg/kg, Day 1, M, 1000 mg/kg PO, read-out: CL/F (CLz/F) (converted)",36.2 mL/min/kg
same,Cmax,[1]; [4],52700 ng/mL
same,Vd/F,"[1]; 1000 mg/kg, Day 1, M, 1000 mg/kg PO, read-out: V/F (Vz/F)",10.9 L/kg
same,half-life,[1]; [4],3.46 h
same,Tmax,[1]; [4],1 h
same,AUC,[1]; [5],293 µg·h/mL
same,AUC(0-inf),[1]; [5],296 µg·h/mL
same,Cmax,[1]; [5],51900 ng/mL
same,Vd/F,"[1]; 1000 mg/kg, Day 14, M, 1000 mg/kg PO, read-out: V/F (Vss/F)",18.1 L/kg
same,half-life,[1]; [5],3.68 h
same,Tmax,[1]; [5],1 h
same,AUC,[1]; [6],334 µg·h/mL
same,AUC(0-inf),[1]; [6],337 µg·h/mL
same,CL/F,"[1]; 1000 mg/kg, Day 28, M, 1000 mg/kg PO, read-out: CL/F (CLss/F) (converted)",49.8 mL/min/kg
same,Cmax,[1]; [6],47900 ng/mL
same,Vd/F,"[1]; 1000 mg/kg, Day 28, M, 1000 mg/kg PO, read-out: V/F (Vss/F)",14.3 L/kg
same,half-life,[1]; [6],3.31 h
same,CL/F,[1]; 2000 mg/kg,47.7 mL/min/kg
same,AUC,[1]; [7],768 µg·h/mL
same,AUC(0-inf),[1]; [7],771 µg·h/mL
same,CL/F,"[1]; 2000 mg/kg, Day 1, M, 2000 mg/kg PO, read-out: CL/F (CLz/F) (converted)",43.2 mL/min/kg
same,Cmax,[1]; [7],83100 ng/mL
same,Vd/F,"[1]; 2000 mg/kg, Day 1, M, 2000 mg/kg PO, read-out: V/F (Vz/F)",10.5 L/kg
same,half-life,[1]; [7],2.81 h
same,AUC,[1]; [8],701 µg·h/mL
same,AUC(0-inf),[1]; [8],709 µg·h/mL
same,Cmax,[1]; [8],75600 ng/mL
same,Vd/F,"[1]; 2000 mg/kg, Day 14, M, 2000 mg/kg PO, read-out: V/F (Vss/F)",15.1 L/kg
same,half-life,[1]; [8],3.66 h
same,Tmax,[1]; [8],1 h
same,AUC,[1]; [9],724 µg·h/mL
same,AUC(0-inf),[1]; [9],731 µg·h/mL
same,CL/F,"[1]; 2000 mg/kg, Day 28, M, 2000 mg/kg PO, read-out: CL/F (CLss/F) (converted)",46 mL/min/kg
same,Cmax,[1]; [9],83600 ng/mL
same,Vd/F,"[1]; 2000 mg/kg, Day 28, M, 2000 mg/kg PO, read-out: V/F (Vss/F)",14.1 L/kg
same,half-life,[1]; [9],3.53 h
same,t1/2,[1]; 2000 mg/kg,8 05 hr
same,IC50,"OATP1B3; HEK293 cells, probe [3H]-estradiol-17β-glucuronide (0.05 μM), 0.3-600 μM tested",> 600 µM
same,transporter inhibition,OATP1B3; OATP1B3,does not inhibit
same,removal of peroxynitrite in models of protein nitration,peroxynitrite,catalytically remove peroxynitrite
same,concentration at 1 h,"in vivo; female, Sprague Dawley (CD IGS, Crl:CD(SD)), Compound 1 Concentration in rat plasma, Female, 100 mg/kg single PO, Average",60100 ng/mL
same,concentration at 2 h,"in vivo; female, Sprague Dawley (CD IGS, Crl:CD(SD)), Compound 1 Concentration in rat plasma, Female, 100 mg/kg single PO, individual animals",58200 ng/mL
same,concentration at 4 h,"in vivo; female, Sprague Dawley (CD IGS, Crl:CD(SD)), Compound 1 Concentration in rat plasma, Female, 100 mg/kg single PO, 4 h post-dose, Average",22600 ng/mL
same,concentration at 0.5 h,in vivo; [10],34300 ng/mL
same,concentration at 1 h,in vivo; [10],53900 ng/mL
same,Cmax,in vivo; [11],60000 ng/mL
same,half-life,in vivo; [11],4 h
same,concentration at 0.5 h,in vivo; [12],13800 ng/mL
same,concentration at 1 h,in vivo; [13],14900 ng/mL
same,concentration at 2 h,in vivo; [13],14300 ng/mL
same,concentration at 2 h,in vivo; [12],16300 ng/mL
same,concentration at 8 h,"in vivo; male, Sprague Dawley, Compound 1 Concentration in rat plasma, 100 mg/kg single PO, 8 h post-dose, individual animals",1610 ng/mL
same,Cmax,in vivo; [14],15000 ng/mL
same,Tmax,in vivo; [14],1 h
same,half-life,in vivo; [14],7 h

# From US20200246316A1, “METHODS OF TREATING POST-SURGICAL PAIN WITH A THIAZOLINE ANTI-HYPERALGESIC AGENT” (CERSCI THERAPEUTICS, INC., priority 2019, published 2020)
